From US6355799B1, “Substituted benzene compounds, process for their preparation, and herbicidal and defoliant compositions containing them” (ISK Americas Incorporated, priority 1997, dated 2002)

Tests used:
Assay type in all cases: in vivo
[1] = tested on: redroot pigweed (Amaranthus retroflexus, AMARE); assay: Pre-emerge test, greenhouse herbicide activity screening; settings: pre-emerge, 14 days after application
How it was run: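 Herbicidal damage is scored 0 (none) to 100 (complete plant death) two weeks after a simulated field spray. Rates span 15–1000 g ai/ha, delivered in acetone at 187 l/ha. For post-emergence treatments, plants have 2–3 leaves and the spray carries 0.25% v/v non-ionic surfactant.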

[2] = tested on: green foxtail (Setaria viridis, SETVI); assay: Post-emerge test, greenhouse herbicide activity screening; settings: post-emerge, 14 days after application, rating scale 0-100
How it was run: (§1)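 Sandy loam pots; pre-emerge: sown 1 d pre-spray, surface-watered after, then bottom-watered. Post-emerge: sown 8–21 d before, 2–3 leaf stage, + 0.25% v/v NIS, bottom-watered. Acetone, 187 l/ha track spray, 15–1000 g ai/ha. 0–100 injury score, day 14.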

[3] = tested on: velvetleaf (Abutilon theophrasti, ABUTH); assay: as above; settings: post-emerge, 14 days after application, rating scale 0-100
How it was run: as §1

[4] = tested on: sicklepod (Cassia obtusifolia, CASOB); assay: as above; settings: post-emerge, 14 days after application, rating scale 0-100
How it was run: as §1

[5] = tested on: redroot pigweed (Amaranthus retroflexus, AMARE); assay: as above; settings: post-emerge, 14 days after application
How it was run: as §1

[6] = tested on: lambsquarters (Chenopodium album, CHEAL); assay: as above; settings: post-emerge, 14 days after application, rating scale 0-100
How it was run: as §1

[7] = tested on: ivyleaf morningglory (Ipomoea hederacea, IPOHE); assay: as above; settings: post-emerge, 14 days after application, rating scale 0-100
How it was run: as §1

[8] = tested on: johnsongrass (Sorghum halepense, SORHA); assay: as above; settings: post-emerge, 14 days after application, rating scale 0-100
How it was run: as §1

[9] = tested on: barnyardgrass (Echinochloa crus-galli, ECHCG); assay: as above; settings: post-emerge, 14 days after application, rating scale 0-100
How it was run: as §1

[10] = tested on: large crabgrass (Digitaria sanguinalis, DIGSA); assay: as above; settings: post-emerge, 14 days after application, rating scale 0-100
How it was run: as §1

[11] = tested on: upland rice (Oryza sp., var. Tebonnet, RICE); assay: Post-emerge test, crop safety; settings: post-emerge, 14 days after application, rating scale 0-100
How it was run: (§2)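 Plants grown in 10 cm pots of sandy loam mix received acetone-dissolved compounds through a moving flat-fan nozzle. Doses ranged from 15 to 1000 g ai/ha. Pre-emerge pots were seeded one day earlier, post-emerge pots 8–21 days earlier. Fourteen days on, each pot was graded 0–100 for damage.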

[12] = tested on: field corn (Zea mays L., var. Dekalb 535, CORN); assay: Post-emerge test, crop safety; settings: post-emerge, 14 days after application, rating scale 0-100
How it was run: as §2

[13] = tested on: green foxtail (Setaria viridis, SETVI); assay: Pre-emerge test, greenhouse herbicide activity screening; settings: pre-emerge, 14 days after application
How it was run: (§3)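 Rating: 0–100 visual injury, 14 DAA. Application: acetone, 187 l/ha, 15–1000 g ai/ha, flat-fan track sprayer with nozzle 40–45 cm above soil or canopy. Post-emerge runs used 0.25% v/v surfactant on 2–3 leaf plants.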

[14] = tested on: velvetleaf (Abutilon theophrasti, ABUTH); assay: as above; settings: pre-emerge, 14 days after application
How it was run: as §3

[15] = tested on: sicklepod (Cassia obtusifolia, CASOB); assay: as above; settings: pre-emerge, 14 days after application
How it was run: as §3

[16] = tested on: lambsquarters (Chenopodium album, CHEAL); assay: as above; settings: pre-emerge, 14 days after application
How it was run: as §3

[17] = tested on: ivyleaf morningglory (Ipomoea hederacea, IPOHE); assay: as above; settings: pre-emerge, 14 days after application
How it was run: as §3

[18] = tested on: johnsongrass (Sorghum halepense, SORHA); assay: as above; settings: pre-emerge, 14 days after application
How it was run: as §3

[19] = tested on: barnyardgrass (Echinochloa crus-galli, ECHCG); assay: as above; settings: pre-emerge, 14 days after application
How it was run: as §3

[20] = tested on: large crabgrass (Digitaria sanguinalis, DIGSA); assay: as above; settings: pre-emerge, 14 days after application
How it was run: as §3

[21] = tested on: upland rice (Oryza sp., var. Tebonnet, RICE); assay: Pre-emerge test, crop safety; settings: pre-emerge, 14 days after application; for phytotoxicity rating RICE: rating scale 0-100; for phytotoxicity rating RICE (crop damage): scale 0-100
How it was run: as §2

[22] = tested on: field corn (Zea mays L., var. Dekalb 535, CORN); assay: Pre-emerge test, crop safety; settings: pre-emerge, 14 days after application; for phytotoxicity rating CORN: rating scale 0-100; for phytotoxicity rating CORN (crop damage): scale 0-100
How it was run: as §2

[23] = 250 g ai/ha, rating scale 0-100

Structure (SMILES): COc1c(Cl)cc(F)c(-n2c(=O)cc(C(F)(F)F)n(C)c2=O)c1SC(C)C [17-2]
- phytotoxicity rating AMARE ([1]; 63 g ai/ha, rating scale 0-100): 30
- phytotoxicity rating AMARE [1, 23]: 60
- Post-emerge Herbicidal Activity SETVI (phytotoxicity rating) ([2]; 63 g ai/ha): 0
- Post-emerge Herbicidal Activity SETVI (phytotoxicity rating) ([2]; 250 g ai/ha): 0
- Post-emerge Herbicidal Activity ABUTH (phytotoxicity rating) ([3]; 63 g ai/ha): 0
- Post-emerge Herbicidal Activity ABUTH (phytotoxicity rating) ([3]; 250 g ai/ha): 50
- Post-emerge Herbicidal Activity CASOB (phytotoxicity rating) ([4]; 63 g ai/ha): 0
- Post-emerge Herbicidal Activity CASOB (phytotoxicity rating) ([4]; 250 g ai/ha): 10
- Post-emerge Herbicidal Activity AMARE (phytotoxicity rating) ([5]; 63 g ai/ha, rating scale 0-100 (0 no damage, 100 complete death)): 0
- Post-emerge Herbicidal Activity AMARE (phytotoxicity rating) [5, 23]: 30
- Post-emerge Herbicidal Activity CHEAL (phytotoxicity rating) ([6]; 63 g ai/ha): 0
- Post-emerge Herbicidal Activity CHEAL (phytotoxicity rating) ([6]; 250 g ai/ha): 40
- Post-emerge Herbicidal Activity IPOHE (phytotoxicity rating) ([7]; 63 g ai/ha): 0
- Post-emerge Herbicidal Activity IPOHE (phytotoxicity rating) ([7]; 250 g ai/ha): 20
- Post-emerge Herbicidal Activity SORHA (phytotoxicity rating) ([8]; 63 g ai/ha): 0
- Post-emerge Herbicidal Activity SORHA (phytotoxicity rating) ([8]; 250 g ai/ha): 0
- Post-emerge Herbicidal Activity ECHCG (phytotoxicity rating) ([9]; 63 g ai/ha): 0
- Post-emerge Herbicidal Activity ECHCG (phytotoxicity rating) ([9]; 250 g ai/ha): 0
- Post-emerge Herbicidal Activity DIGSA (phytotoxicity rating) ([10]; 63 g ai/ha): 0
- Post-emerge Herbicidal Activity DIGSA (phytotoxicity rating) ([10]; 250 g ai/ha): 0
- Post-emerge Herbicidal Activity RICE (crop damage rating) ([11]; 63 g ai/ha): 0
- Post-emerge Herbicidal Activity RICE (crop damage rating) ([11]; 250 g ai/ha): 0
- Post-emerge Herbicidal Activity CORN (crop damage rating) ([12]; 63 g ai/ha): 0
- Post-emerge Herbicidal Activity CORN (crop damage rating) ([12]; 250 g ai/ha): 0
- phytotoxicity rating SETVI ([13]; 63 g ai/ha, rating scale 0-100): 0
- phytotoxicity rating SETVI [13, 23]: 0
- phytotoxicity rating ABUTH ([14]; 63 g ai/ha, rating scale 0-100): 0
- phytotoxicity rating ABUTH [14, 23]: 20
- phytotoxicity rating CASOB ([15]; 63 g ai/ha, rating scale 0-100): 0
- phytotoxicity rating CASOB [15, 23]: 0
- phytotoxicity rating CHEAL ([16]; 63 g ai/ha, rating scale 0-100): 60
- phytotoxicity rating CHEAL [16, 23]: 90
- phytotoxicity rating IPOHE ([17]; 63 g ai/ha, rating scale 0-100): 0
- phytotoxicity rating IPOHE [17, 23]: 0
- phytotoxicity rating SORHA ([18]; 63 g ai/ha, rating scale 0-100): 0
- phytotoxicity rating SORHA [18, 23]: 0
- phytotoxicity rating ECHCG ([19]; 63 g ai/ha, rating scale 0-100): 0
- phytotoxicity rating ECHCG [19, 23]: 0
- phytotoxicity rating DIGSA ([20]; 63 g ai/ha, rating scale 0-100): 0
- phytotoxicity rating DIGSA [20, 23]: 0
- phytotoxicity rating RICE ([21]; 63 g ai/ha): 0
- phytotoxicity rating RICE ([21]; 250 g ai/ha): 0
- phytotoxicity rating CORN ([22]; 63 g ai/ha): 0
- phytotoxicity rating CORN ([22]; 250 g ai/ha): 0

Structure (SMILES): CCOC(=O)CSCC(=O)Nc1c(OC)c(Cl)cc(F)c1-n1c(=O)cc(C(F)(F)F)n(C)c1=O [2-170]
- phytotoxicity rating AMARE ([1]; 63 g ai/ha, scale 0-100): 70
- phytotoxicity rating AMARE ([1]; 250 g ai/ha, scale 0-100): 100
- SETVI phytotoxicity rating ([2]; 63 g ai/ha): 10
- SETVI phytotoxicity rating ([2]; 250 g ai/ha): 20
- ABUTH phytotoxicity rating ([3]; 63 g ai/ha): 35
- ABUTH phytotoxicity rating ([3]; 250 g ai/ha): 90
- CASOB phytotoxicity rating ([4]; 63 g ai/ha): 10
- CASOB phytotoxicity rating ([4]; 250 g ai/ha): 60
- AMARE phytotoxicity rating ([5]; 63 g ai/ha, rating scale 0-100): 20
- AMARE phytotoxicity rating [5, 23]: 30
- CHEAL phytotoxicity rating ([6]; 63 g ai/ha): 60
- CHEAL phytotoxicity rating ([6]; 250 g ai/ha): 50
- IPOHE phytotoxicity rating ([7]; 63 g ai/ha): 50
- IPOHE phytotoxicity rating ([7]; 250 g ai/ha): 95
- SORHA phytotoxicity rating ([8]; 63 g ai/ha): 0
- SORHA phytotoxicity rating ([8]; 250 g ai/ha): 10
- ECHCG phytotoxicity rating ([9]; 63 g ai/ha): 0
- ECHCG phytotoxicity rating ([9]; 250 g ai/ha): 20
- DIGSA phytotoxicity rating ([10]; 63 g ai/ha): 0
- DIGSA phytotoxicity rating ([10]; 250 g ai/ha): 30
- RICE phytotoxicity rating (crop damage) ([11]; 63 g ai/ha): 5
- RICE phytotoxicity rating (crop damage) ([11]; 250 g ai/ha): 10
- CORN phytotoxicity rating (crop damage) ([12]; 63 g ai/ha): 5
- CORN phytotoxicity rating (crop damage) ([12]; 250 g ai/ha): 15
- phytotoxicity rating SETVI ([13]; 63 g ai/ha, scale 0-100): 60
- phytotoxicity rating SETVI ([13]; 250 g ai/ha, scale 0-100): 90
- phytotoxicity rating ABUTH ([14]; 63 g ai/ha, scale 0-100): 90
- phytotoxicity rating ABUTH ([14]; 250 g ai/ha, scale 0-100): 100
- phytotoxicity rating CASOB ([15]; 63 g ai/ha, scale 0-100): 30
- phytotoxicity rating CASOB ([15]; 250 g ai/ha, scale 0-100): 60
- phytotoxicity rating CHEAL ([16]; 63 g ai/ha, scale 0-100): 100
- phytotoxicity rating CHEAL ([16]; 250 g ai/ha, scale 0-100): 100
- phytotoxicity rating IPOHE ([17]; 63 g ai/ha, scale 0-100): 40
- phytotoxicity rating IPOHE ([17]; 250 g ai/ha, scale 0-100): 70
- phytotoxicity rating SORHA ([18]; 63 g ai/ha, scale 0-100): 20
- phytotoxicity rating SORHA ([18]; 250 g ai/ha, scale 0-100): 80
- phytotoxicity rating ECHCG ([19]; 63 g ai/ha, scale 0-100): 0
- phytotoxicity rating ECHCG ([19]; 250 g ai/ha, scale 0-100): 50
- phytotoxicity rating DIGSA ([20]; 63 g ai/ha, scale 0-100): 30
- phytotoxicity rating DIGSA ([20]; 250 g ai/ha, scale 0-100): 90
- phytotoxicity rating RICE (crop damage) ([21]; 63 g ai/ha): 10
- phytotoxicity rating RICE (crop damage) ([21]; 250 g ai/ha): 0
- phytotoxicity rating CORN (crop damage) ([22]; 63 g ai/ha): 10
- phytotoxicity rating CORN (crop damage) ([22]; 250 g ai/ha): 15
